Test results taken from ChEMBL document CHEMBL2424617, “Microwave-assisted synthesis and anticonvulsant activity of 5,6-bisaryl-1,2,4-triazine-3-thiol derivatives” (Med Chem Res, 2013).
Calls of active or inactive are those of the source. The calls are words filed in the database; no cut-off is given here.

Columns and labels:
Mus musculus [1] = assay: Neurotoxicity in NMRI mouse assessed as impairment of motor coordination at 100 mg/kg after 30 mins by rotarod test; type: toxicity, organism-based; parameters: dose 100 mg/kg; conditions: in vivo, 0.5 h
Mus musculus [2] = assay: Neurotoxicity in NMRI mouse assessed as impairment of motor coordination at 100 mg/kg after 30 mins by chimney test; type: toxicity, organism-based; parameters: dose 100 mg/kg; conditions: in vivo, 0.5 h
Mus musculus [3] = assay: Anticonvulsant activity in NMRI mouse assessed as […] of PTZ required to induce seizure at 100 mg/kg, ip after 30 mins (reference value: 31.5 +/- 4.4 mg/kg); type: functional
Mus musculus [4] = assay: Anticonvulsant activity in NMRI mouse assessed as protection against electroshock-induced seizure at 100 mg/kg after 30 mins; type: functional
Mus musculus [5] = assay: Anticonvulsant activity in NMRI mouse assessed as […] of PTZ required to induce seizure at 12.5 mg/kg, ip after 30 mins (reference value: 31.5 +/- 4.4 mg/kg); type: functional
Mus musculus [6] = assay: Anticonvulsant activity in NMRI mouse assessed as protection against electroshock-induced seizure at 12.5 mg/kg, ip after 30 mins; type: functional; conditions: route intraperitoneal
Mus musculus [7] = assay: Neurotoxicity in NMRI mouse assessed as impairment of motor coordination at 12.5 mg/kg, ip after 30 mins by chimney test; type: toxicity, organism-based; parameters: dose 12.5 mg/kg, route intraperitoneal; conditions: in vivo, 0.5 h
Mus musculus [8] = assay: Neurotoxicity in NMRI mouse assessed as impairment of motor coordination at 12.5 mg/kg, ip after 30 mins by rotarod test; type: toxicity, organism-based; parameters: dose 12.5 mg/kg, route intraperitoneal; conditions: in vivo, 0.5 h

Compound | Activity (Mus musculus [1]) | Activity (Mus musculus [2]) | Activity (Mus musculus [3]) [mg/kg] | Activity (Mus musculus [4]) | Activity (Mus musculus [5]) [mg/kg] | Activity (Mus musculus [6]) [%] | Activity (Mus musculus [7]) | Activity (Mus musculus [8])
CSc1nnc(-c2ccc(F)cc2)c(-c2ccc(F)cc2)n1 | Non-toxic | 33% |  |  |  |  |  | 
CSc1nnc(-c2ccc(C)cc2)c(-c2ccc(C)cc2)n1 | Non-toxic | Non-toxic | 39.4 |  |  |  |  | 
COc1ccc(-c2nnc(SCc3cccnc3)nc2-c2ccc(OC)cc2)cc1 | Non-toxic | Non-toxic | 41.5 |  |  |  |  | 
Sc1nnc(-c2cccs2)c(-c2cccs2)n1 | Non-toxic | Non-toxic | 24.42 |  |  |  |  | 
Clc1ccc(-c2nnc(SCc3ccncc3)nc2-c2ccc(Cl)cc2)cc1 |  | Non-toxic | 43 |  |  |  |  | 
Sc1nnc(-c2ccc(Cl)cc2)c(-c2ccc(Cl)cc2)n1 | Non-toxic | Non-toxic |  |  |  |  |  | 
Cc1ccc(-c2nnc(SCc3ccncc3)nc2-c2ccc(C)cc2)cc1 | Non-toxic | Non-toxic | 49.4 | 100% |  |  |  | 
Cc1ccc(-c2nnc(S)nc2-c2ccc(C)cc2)cc1 |  | Non-toxic | 40.4 |  |  |  |  | 
CSc1nnc(-c2cccs2)c(-c2cccs2)n1 | Non-toxic | Non-toxic | 38.23 |  |  |  |  | 
Nc1nnc(-c2cccc(Cl)c2Cl)c(N)n1 [LAMOTRIGINE] |  |  |  |  | 72.9 | 100 | Non-toxic | Non-toxic
Cc1ccc(-c2nnc(SCc3cccnc3)nc2-c2ccc(C)cc2)cc1 | Non-toxic | Non-toxic | 47 |  |  |  |  | 
COc1ccc(-c2nnc(SC)nc2-c2ccc(OC)cc2)cc1 | Non-toxic | Non-toxic | 41.4 |  |  |  |  | 
COc1ccc(-c2nnc(S)nc2-c2ccc(OC)cc2)cc1 | Non-toxic | Non-toxic |  | inactive |  |  |  | 
